A short description of data set [1]: Titration pKa' in 66 percent DMF. In kind it is physicochemical.
Another data set concerns P388 leukemia. In words: P388 leukemia transplanted in mice, tumor inhibition or prolongation of survival. In kind it is in vivo. How it is done: (§1) The compounds of this invention and those preparable by the process disclosed herein are active against transplanted tumors in mice in vivo.
(§2) The following table--Table 1--gives the results of experiments in which mice bearing transplanted Gardner lymphosarcoma (GLS), C3 H mammary tumor, B16 melanoma, P 1534(J) leukemia, P388 leukemia or 755 adenocarcinoma were treated with a compound of this invention. In the table, column 1 gives the name of the compound; column 2, the tumor system employed; column 3, the dosage schedule and column 4, the percent inhibition of tumor growth or increased life span.

In data set [2] the test system is experimental malignancies. The conditions noted are these: naturally-occurring Vinca alkaloids; prior patents; cited from earlier work.
For the next data set, the system named is B16 melanoma. Nature of the data set: B16 melanoma transplanted in mice, tumor inhibition or prolongation of survival. In kind it is in vivo. How it is done: as §1, §2

With `CCC1(O)CC2CN(CCc3c([nH]c4ccccc34)C(C(=O)OC)(c3cc4c(cc3OC)N(C)C3C(O)(C(=O)NCCCCNC(=O)C5(O)C(O)C6(CC)C=CCN7CCC8(c9cc(C%10(C(=O)OC)CC%11CN(CCc%12c%10[nH]c%10ccccc%12%10)CC(O)(CC)C%11)c(OC)cc9N(C)C58)C76)C(O)C5(CC)C=CCN6CCC43C65)C2)C1` (stereo not drawn) [1,4-bis(4-desacetyl VLB C-3 carboxamido)butane], in data set [1], the “pKa'” value is listed as 7.5 and the “pKa' (first value)” value was 6.6.

Regarding `CCC1(O)CC2CN(CCc3c([nH]c4ccccc34)C(C(=O)OC)(c3cc4c(cc3OC)N(C)C3C(O)(C(=O)NCCCCCCNC(=O)C5(O)C(O)C6(CC)C=CCN7CCC8(c9cc(C%10(C(=O)OC)CC%11CN(CCc%12c%10[nH]c%10ccccc%12%10)CC(O)(CC)C%11)c(OC)cc9N(C)C58)C76)C(O)C5(CC)C=CCN6CCC43C65)C2)C1` (stereo not drawn) [1,6-bis(4-Desacetyl VLB C-3 carboxamido)hexane disulfate], the “Percent Inhibition or Prolongation of Survival Time” value (shortened to “Percent Inhibition or Prolongation”) amounted to 27% with P388 leukemia (P388, 0.9 mg./kg. × 3) and 74% in the data set with P388 leukemia (P388, 1.2 mg./kg. × 3).

On to `CCC1(O)CC2CN(CCc3c([nH]c4ccccc34)C(C(=O)OC)(c3cc4c(cc3OC)N(C)C3C(O)(C(=O)NCCCCCCNC(=O)C5(O)C(O)C6(CC)C=CCN7CCC8(c9cc(C%10(C(=O)OC)CC%11CN(CCc%12c%10[nH]c%10ccccc%12%10)CC(O)(CC)C%11)c(OC)cc9N(C)C58)C76)C(O)C5(CC)C=CCN6CCC43C65)C2)C1` (stereo not drawn) [1,6-bis(4-desacetyl VLB C-3 carboxamido)hexane], for which, in data set [1], the “pKa'” value is on record as 7.27 and the “pKa' (first value)” value was found to be 5.27.

Consider `CCC1(O)CN2CCc3c([nH]c4ccccc34)C(C(=O)OC)(c3cc4c(cc3OC)N(C)C3C(O)(C(=O)OC)CC5(CC)C=CCN6CCC43C65)CC(C2)C1O` (stereo not drawn) [4-desacetoxy-3'-hydroxyvinblastine], for which, in data set [2], the “active in the treatment of experimental malignancies in animals” value (“active in the treatment” below) is recorded as “active”.

In the case of `CCC1(O)CC2CN(CCc3c([nH]c4ccccc34)C(C(=O)OC)(c3cc4c(cc3OC)N(C)C3C(O)(C(=O)OC)CC5(CC)C=CCN6CCC43C65)C2)C1` (stereo not drawn) [4-desacetoxyvinblastine], in data set [2], the “active in the treatment” value is reported as “active”.

On to `CCC1(O)CC2CN(CCc3c([nH]c4ccccc34)C(C(=O)OC)(c3cc4c(cc3OC)N(C)C3C(O)(C(=O)NCCCSSCCCNC(=O)C5(O)C(O)C6(CC)C=CCN7CCC8(c9cc(C%10(C(=O)OC)CC%11CN(CCc%12c%10[nH]c%10ccccc%12%10)CC(O)(CC)C%11)c(OC)cc9N(C)C58)C76)C(O)C5(CC)C=CCN6CCC43C65)C2)C1` (stereo not drawn) [bis [γ-(4-desacetyl VLB C-3 carboxamido)propyl]disulfide disulfate], for which the “Percent Inhibition or Prolongation” value came to 99% in the data set with B16 melanoma (B16, 0.6 mg./kg. × 3); 61% in the data set on B16 melanoma (B16, 0.9 mg./kg. × 3); 68% in the data set with B16 melanoma (B16, 1.2 mg./kg. × 3). The “number of indefinite survivors” value is listed as 8 in the data set on B16 melanoma (B16, 0.6 mg./kg. × 3); 5 in the data set with B16 melanoma (B16, 0.9 mg./kg. × 3); 8 in the data set with B16 melanoma (B16, 1.2 mg./kg. × 3).

On to `CCC1(O)CC2CN(CCc3c([nH]c4ccccc34)C(C(=O)OC)(c3cc4c(cc3OC)N(C)C3C(O)(C(=O)NCCSCCNC(=O)C5(O)C(O)C6(CC)C=CCN7CCC8(c9cc(C%10(C(=O)OC)CC%11CN(CCc%12c%10[nH]c%10ccccc%12%10)CC(O)(CC)C%11)c(OC)cc9N(C)C58)C76)C(O)C5(CC)C=CCN6CCC43C65)C2)C1` (stereo not drawn) [bis[β-(4-Desacetyl VLB C-3 carboxamido)ethyl]sulfide disulfate], for which the “Percent Inhibition or Prolongation” value came out at 34% with P388 leukemia (P388, 0.6 mg./kg. × 3); 49% with P388 leukemia (P388, 0.9 mg./kg. × 3); 33% with P388 leukemia (P388, 1.2 mg./kg. × 3).

As for `CCC12CN3CCc4c([nH]c5ccccc45)C(C(=O)OC)(c4cc5c(cc4OC)N(C)C4C(O)(C(=O)NCCSSCCNC(=O)C6(O)C(O)C7(CC)C=CCN8CCC9(c%10cc(C%11(C(=O)OC)CC%12CN(CCc%13c%11[nH]c%11ccccc%13%11)CC%11(CC)OC%12%11)c(OC)cc%10N(C)C69)C87)C(O)C6(CC)C=CCN7CCC54C76)CC(C3)C1O2` (stereo not drawn) [bis[β-(4-Desacetylleurosine C-3 carboxamido)ethyl]disulfide disulfate], the “Percent Inhibition or Prolongation” value in the data set with P388 leukemia (P388, 15 mg./kg. × 3) came to 46%; in the data set with P388 leukemia (P388, 30 mg./kg. × 3), 55%.

In the case of `CCC1(O)CC2CN(CCc3c([nH]c4ccccc34)C(C(=O)OC)(c3cc4c(cc3OC)N(C)C3C(O)(C(=O)NCC[Se][Se]CCNC(=O)C5(O)C(O)C6(CC)C=CCN7CCC8(c9cc(C%10(C(=O)OC)CC%11CN(CCc%12c%10[nH]c%10ccccc%12%10)CC(O)(CC)C%11)c(OC)cc9N(C)C58)C76)C(O)C5(CC)C=CCN6CCC43C65)C2)C1` (stereo not drawn) [bis[β-(4-desacetyl VLB C-3 carboxamido)ethyl]diselenide], in data set [1], the “pKa'” value came to 7.22 and the “pKa' (first value)” value turned out to be 5.10.

Regarding `CCC1(O)CC2CN(CCc3c([nH]c4ccccc34)C(C(=O)OC)(c3cc4c(cc3OC)N(C)C3C(O)(C(=O)NCCOCCNC(=O)C5(O)C(O)C6(CC)C=CCN7CCC8(c9cc(C%10(C(=O)OC)CC%11CN(CCc%12c%10[nH]c%10ccccc%12%10)CC(O)(CC)C%11)c(OC)cc9N(C)C58)C76)C(O)C5(CC)C=CCN6CCC43C65)C2)C1` (stereo not drawn) [bis[β-(4-desacetyl VLB C-3 carboxamido)ethyl]ether], in data set [1], the “pKa'” value is recorded as 7.21 and the “pKa' (first value)” value is 5.13.

With `CCC12CN3CCc4c([nH]c5ccccc45)C(C(=O)OC)(c4cc5c(cc4OC)N(C)C4C(O)(C(=O)NCCSSCCNC(=O)C6(O)C(O)C7(CC)C=CCN8CCC9(c%10cc(C%11(C(=O)OC)CC%12CN(CCc%13c%11[nH]c%11ccccc%13%11)CC%11(CC)OC%12%11)c(OC)cc%10N(C)C69)C87)C(O)C6(CC)C=CCN7CCC54C76)CC(C3)C1O2` (stereo not drawn) [bis[β-(4-desacetylleurosine C-3 carboxamido)ethyl]disulfide], in data set [1], the “pKa'” value worked out at 7.0 and the “pKa' (first value)” value is reported as 5.3.

For `CCC1(O)CC2CN(CCc3c([nH]c4ccccc34)C(C(=O)OC)(c3cc4c(cc3OC)N(C)C3C(O)(C(=O)NCCCNCCCNC(=O)C5(O)C(O)C6(CC)C=CCN7CCC8(c9cc(C%10(C(=O)OC)CC%11CN(CCc%12c%10[nH]c%10ccccc%12%10)CC(O)(CC)C%11)c(OC)cc9N(C)C58)C76)C(O)C5(CC)C=CCN6CCC43C65)C2)C1` (stereo not drawn) [bis[γ-(4-desacetyl VLB C-3 carboxamido)propyl]amine], in data set [1], the “pKa'” value was 7.17, the “pKa' (first value)” value turned out to be 4.98 and the “pKa' (third printed value)” value was found to be 10.18.

`CCC1(O)CC2CN(CCc3c([nH]c4ccccc34)C(C(=O)OC)(c3cc4c(cc3OC)N(C)C3C(O)(C(=O)NCCCSSCCCNC(=O)C5(O)C(O)C6(CC)C=CCN7CCC8(c9cc(C%10(C(=O)OC)CC%11CN(CCc%12c%10[nH]c%10ccccc%12%10)CC(O)(CC)C%11)c(OC)cc9N(C)C58)C76)C(O)C5(CC)C=CCN6CCC43C65)C2)C1` (stereo not drawn) [bis[γ-(4-desacetyl VLB C-3 carboxamido)propyl]disulfide]: in data set [1], the “pKa'” value is 7.21 and the “pKa' (first value)” value is recorded as 5.20.

As to `CCC1CC2CN(CCc3c([nH]c4ccccc34)C(C(=O)OC)(c3cc4c(cc3OC)N(C)C3C(O)(C(=O)OC)C(OC(C)=O)C5(CC)C=CCN6CCC43C65)C2)C1` (stereo not drawn) [deoxy VLB "A"], the “active in the treatment” value in data set [2] is given as “active”.

Consider `CCC1(O)CN2CCc3c([nH]c4ccccc34)C(C(=O)OC)(c3cc4c(cc3OC)N(C)C3C(O)(C(=O)OC)C(OC(C)=O)C5(CC)C=CCN6CCC43C65)CC(O)(C2)C1` (stereo not drawn) [leurocolombine], for which the “active in the treatment” value in data set [2] was “active”.

With `CC[C@]1(O)C[C@H]2CN(CCc3c([nH]c4ccccc34)[C@@](C(=O)OC)(c3cc4c(cc3OC)N(C=O)[C@H]3[C@@](O)(C(=O)OC)[C@H](OC(C)=O)[C@]5(CC)C=CCN6CC[C@]43[C@@H]65)C2)C1` [leurocristine], in data set [2], the “active in the treatment” value is given as “active”.

Take `CC[C@]12CN3CCc4c([nH]c5ccccc45)[C@@](C(=O)OC)(c4cc5c(cc4OC)N(C=O)[C@H]4[C@@](O)(C(=O)OC)[C@H](OC(C)=O)[C@]6(CC)C=CCN7CC[C@]54[C@@H]76)C[C@@H](C3)[C@H]1O2` [leuroformine]: in data set [2], the “active in the treatment” value is “active”.

For the compound `CCC1(O)CC2CN(CCc3c([nH]c4ccccc34)C(C(=O)OC)(c3cc4c(cc3OC)N(C)C3C(O)(C(=O)OC)C(OC(C)=O)C5(CC)C=CCN6CCC43C65)C2)C1` (stereo not drawn) [leurosidine], the “active in the treatment” value in data set [2] is “active”.

For `CC[C@]12CN3CCc4c([nH]c5ccccc45)[C@@](C(=O)OC)(c4cc5c(cc4OC)N(C)[C@H]4[C@@](O)(C(=O)OC)[C@H](OC(C)=O)[C@]6(CC)C=CCN7CC[C@]54[C@@H]76)C[C@H](C3)[C@H]1O2` [leurosine], the “active in the treatment” value in data set [2] is recorded as “active”.

Consider `CCC1(O)CC2CN(CCc3c([nH]c4ccccc34)C(C(=O)OC)(c3cc4c(cc3OC)N(C)C3C(O)(C(=O)NCCN(CCNC(=O)C5(O)C(O)C6(CC)C=CCN7CCC8(c9cc(C%10(C(=O)OC)CC%11CN(CCc%12c%10[nH]c%10ccccc%12%10)CC(O)(CC)C%11)c(OC)cc9N(C)C58)C76)CCNC(=O)C5(O)C(O)C6(CC)C=CCN7CCC8(c9cc(C%10(C(=O)OC)CC%11CN(CCc%12c%10[nH]c%10ccccc%12%10)CC(O)(CC)C%11)c(OC)cc9N(C)C58)C76)C(O)C5(CC)C=CCN6CCC43C65)C2)C1` (stereo not drawn) [tris [β-(4-desacetyl VLB C-3 carboxamido)ethyl]amine], for which, in data set [1], the “pKa'” value is listed as 7.25 and the “pKa' (first value)” value is recorded as 5.2.

Consider `CCC1(O)CN2CCc3c([nH]c4ccccc34)C(C(=O)OC)(c3cc4c(cc3OC)N(C)C3C(O)(C(=O)OC)C(OC(C)=O)C5(CC)C=CCN6CCC43C65)CC(C2)C1O` (stereo not drawn) [vincadioline], for which the “active in the treatment” value in data set [2] is listed as “active”.
